Like-named read-outs stand apart in the source and are kept apart here.
Tests used:
human CCR2B = human CCR2B (Homo sapiens (Human), UniProt P41597); assay: Inhibition of native agonist (human MCP-1)-induced intracellular calcium release, calcium flux assay in CHO cells expressing human CCR2B and Gα16; format: cell-based; conditions: for IC50: read-out: hCCR2B IC50; for Kb: read-out: hCCR2B Kb
Description: (§1) CHO cells expressing human CCR2B were generated as follows. cDNA for human CCR2B (cloned from human blood) was cloned into plasmid pcDNA3.1 (from Invitrogen). The resulting plasmids were separately transfected into CHO cells expressing human Gα16 (from Molecular Devices). […] CHO cells expressing rat CCR2 were generated as follows. cDNA for rat CCR2 (cloned from rat macrophage) was cloned into plasmid pEF-flag (from Chinese Academy of Science). The resulting plasmids were transfected into CHO cells expressing human Gα16 (from […]).
(§2) Inhibition of Native Agonist-Induced Intracellular Calcium Release in Cells Expressing hCCR2B or rCCR2
(§3) Calcium flux assays were performed in CHO cells expressing human CCR2B and Gα16 coupling protein, or rat CCR2 and Gα16 coupling protein. All compounds were dissolved in DMSO and assays run at a final DMSO concentration of 0.25% (v/v). Human MCP-1 was purchased from PeproTech and used at a final assay concentration of 2 nM, while rat MCP-1 was purchased from R&D and used at a final assay concentration of 4 nM. Assays with cells expressing human CCR2B were performed with human MCP-1, while assays with cells expressing rat CCR2 were performed with rat MCP-1.
(§4) Briefly, cells were cultured overnight in a microtiter plate at 8000 per well. The next day, the resultant adherent cells were incubated in assay buffer (20 mM HEPES, pH 7.4, 0.1% bovine serum albumin, and 2.5 mM probenocid in Hank's Buffered Saline Solution) containing Calcium 4 dye (Molecular Probes) at 37° C. for 60 minutes. Calcium flux assays were performed on a FLIPR^Tetra instrument (Molecular Devices) by adding compound to the cells followed by addition of native agonist and measuring the change in fluorescence as a function of time. Maximal and minimal values for fluorescence were determined using native agonist (2 nM MCP-1) for human or rat CCR2, or buffer addition, respectively. Fluorescence values were used to calculate the percent inhibition at a given compound concentration and the data fit to a sigmoidal curve in a semi-log plot to determine IC50 values. The Kb value is calculated as Kb=IC50/(1+[agonist]/EC50), where [agonist] is the concentration of agonist used and EC50 is the agonist potency determined in the previous experiments. Mean Kb values and IC50 of the compounds assayed are reported in Table 2 and Table 3 respectively.

rat CCR2 = rat CCR2 (Rattus norvegicus (Rat), UniProt O55193); assay: Inhibition of native agonist (rat MCP-1)-induced intracellular calcium release, calcium flux assay in CHO cells expressing rat CCR2 and Gα16; format: cell-based; conditions: read-out: rCCR2 Kb
Description: as §1, §2, §3, §4

human CCR2B, sequence (P41597 other isoform, or with tags, fused parts or gaps): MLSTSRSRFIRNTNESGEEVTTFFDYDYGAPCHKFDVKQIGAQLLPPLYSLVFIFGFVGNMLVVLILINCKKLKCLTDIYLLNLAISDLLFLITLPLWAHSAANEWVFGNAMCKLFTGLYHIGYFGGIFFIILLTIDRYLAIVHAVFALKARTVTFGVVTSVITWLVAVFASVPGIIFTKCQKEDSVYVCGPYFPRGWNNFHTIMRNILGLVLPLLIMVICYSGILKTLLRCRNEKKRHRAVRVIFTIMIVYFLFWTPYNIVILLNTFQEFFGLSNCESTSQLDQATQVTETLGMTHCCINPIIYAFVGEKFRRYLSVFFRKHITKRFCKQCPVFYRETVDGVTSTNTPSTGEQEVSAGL
rat CCR2, sequence (O55193 whole entry): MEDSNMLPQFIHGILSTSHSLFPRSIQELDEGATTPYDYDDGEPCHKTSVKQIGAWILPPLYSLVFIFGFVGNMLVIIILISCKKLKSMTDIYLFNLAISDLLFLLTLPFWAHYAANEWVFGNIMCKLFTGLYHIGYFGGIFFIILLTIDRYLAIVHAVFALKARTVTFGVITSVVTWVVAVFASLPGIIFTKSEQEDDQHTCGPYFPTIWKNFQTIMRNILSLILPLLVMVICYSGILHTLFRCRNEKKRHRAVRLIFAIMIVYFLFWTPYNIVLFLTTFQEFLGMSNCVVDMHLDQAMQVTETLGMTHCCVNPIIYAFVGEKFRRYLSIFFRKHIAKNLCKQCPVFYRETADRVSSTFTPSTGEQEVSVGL

| Compound | IC50 (human CCR2B; calcium flux, human MCP-1 2 nM) | Kb (human CCR2B) | Kb (rat CCR2) | IC50 (human CCR2B) |
| --- | --- | --- | --- | --- |
| CO[C@@H]1COCC[C@@H]1N[C@@H]1C[C@H]2CCC[C@@]2(C(=O)N2C[C@@H]3C[C@H]2CN3c2ccnc(Cl)c2)C1 [Example 35, 1,5-anhydro-3-{[(2R,3aR,6aR)-3a-{[(1S,4S)-5-(2-chloropyridin-4-yl)-2,5-diazabicyclo[2.2.1]hept-2-yl]carbonyl}octahydropentalen-2-yl]amino}-2,3-dideoxy-4-O-methyl-D-erythro-pentitol] | 2.78 µM | 0.682 µM | 0.24 µM |  |
| CO[C@@H]1COCC[C@@H]1N(C)[C@@H]1C[C@H]2CCC[C@@]2(C(=O)N2C[C@@H]3C[C@H]2CN3c2cccc(C(F)(F)F)c2C#N)C1 [Example 54, 1,5-anhydro-3-{[(2R,3aR,6aR)-3a-({(1S,4S)-5-[2-cyano-3-(trifluoromethyl)phenyl]-2,5-diazabicyclo[2.2.1]hept-2-yl}carbonyl)octahydropentalen-2-yl](methyl)amino}-2,3-dideoxy-4-O-methyl-D-erythro-pentitol] |  | 0.682 µM | 2.31 µM | 2.78 µM |
| CO[C@@H]1COCC[C@@H]1N[C@@H]1C[C@H]2CCC[C@@]2(C(=O)N2C[C@@H]3C[C@H]2CN3c2cc(C)cc(C(F)(F)F)c2)C1 [Example 24, 1,5-anhydro-2,3-dideoxy-4-O-methyl-3-{[(2R,3aR,6aR)-3a-({(1S,4S)-5-[3-methyl-5-(trifluoromethyl)phenyl]-2,5-diazabicyclo[2.2.1]hept-2-yl}carbonyl)octahydropentalen-2-yl]amino}-D-erythro-pentitol] | 1.39 µM | 0.341 µM | 0.116 µM |  |
| CO[C@@H]1COCC[C@@H]1N[C@@H]1C[C@H]2CCC[C@@]2(C(=O)N2C[C@@H]3C[C@H]2CN3c2cccc(C(F)(F)F)c2F)C1 [Example 17, 1,5-anhydro-2,3-dideoxy-3-{[(2R,3aR,6aR)-3a-({(1S,4S)-5-[2-fluoro-3-(trifluoromethyl)phenyl]-2,5-diazabicyclo[2.2.1]hept-2-yl}carbonyl)octahydropentalen-2-yl]amino}-4-O-methyl-D-erythro-pentitol] | 1.29 µM | 0.316 µM | 0.16 µM |  |
| CO[C@@H]1COCC[C@@H]1N[C@@H]1C[C@H]2CCC[C@@]2(C(=O)N2C[C@@H]3C[C@H]2CN3c2cccc(C(F)(F)F)c2C)C1 [Example 23, 1,5-anhydro-2,3-dideoxy-4-O-methyl-3-{[(2R,3aR,6aR)-3a-({(1S,4S)-5-[2-methyl-3-(trifluoromethyl)phenyl]-2,5-diazabicyclo[2.2.1]hept-2-yl}carbonyl)octahydropentalen-2-yl]amino}-D-erythro-pentitol] | 1.11 µM | 0.272 µM | 0.158 µM |  |
| CO[C@@H]1COCC[C@@H]1N[C@@H]1C[C@H]2CCC[C@@]2(C(=O)N2C[C@@H]3C[C@H]2CN3c2ncccc2C(F)(F)F)C1 [Example 33, 1,5-anhydro-2,3-dideoxy-4-O-methyl-3-{[(2R,3aR,6aR)-3a-({(1S,4S)-5-[3-(trifluoromethyl)pyridin-2-yl]-2,5-diazabicyclo[2.2.1]hept-2-yl}carbonyl)octahydropentalen-2-yl]amino}-D-erythro-pentitol] |  | > 6.14 µM | > 1.33 µM | 25 µM |
| CO[C@@H]1COCC[C@@H]1N[C@@H]1C[C@H]2CCC[C@@]2(C(=O)N2C[C@@H]3C[C@H]2CN3c2ccc(C#N)cc2C(F)(F)F)C1 [Example 37, 1,5-anhydro-3-{[(2R,3aR,6aR)-3a-({(1S,4S)-5-[4-cyano-2-(trifluoromethyl)phenyl]-2,5-diazabicyclo[2.2.1]hept-2-yl}carbonyl)octahydropentalen-2-yl]amino}-2,3-dideoxy-4-O-methyl-D-erythro-pentitol] | 1.6 µM | 0.393 µM | 0.248 µM |  |
| CO[C@@H]1COCC[C@@H]1N[C@@H]1C[C@H]2CCC[C@@]2(C(=O)N2C[C@@H]3C[C@H]2CN3c2nccc(C(F)(F)F)c2C)C1 (racemic) [Example 38, 1,5-anhydro-2,3-dideoxy-4-O-methyl-3-{[(2R,3aR,6aR)-3a-({(1S,4S)-5-[3-methyl-4-(trifluoromethyl)pyridin-2-yl]-2,5-diazabicyclo[2.2.1]hept-2-yl}carbonyl)octahydropentalen-2-yl]amino}-D-erythro-pentitol] | 1.6 µM | 0.394 µM | 0.317 µM |  |
| CO[C@@H]1COCC[C@@H]1N(C)[C@@H]1C[C@H]2CCC[C@@]2(C(=O)N2C[C@@H]3C[C@H]2CN3c2cccc(Cl)c2C#N)C1 [Example 58, 1,5-anhydro-3-{[(2R,3aR,6aR)-3a-{[(1S,4S)-5-(3-chloro-2-cyanophenyl)-2,5-diazabicyclo[2.2.1]hept-2-yl]carbonyl}octahydropentalen-2-yl](methyl)amino}-2,3-dideoxy-4-O-methyl-D-erythro-pentitol] | 2.78 µM | 0.684 µM | 0.515 µM |  |
| CO[C@@H]1COCC[C@@H]1N[C@@H]1C[C@H]2CCC[C@@]2(C(=O)N2C[C@@H]3C[C@H]2CN3c2ccc(C(F)(F)F)cn2)C1 [Example 34, 1,5-anhydro-2,3-dideoxy-4-O-methyl-3-{[(2R,3aR,6aR)-3a-({(1S,4S)-5-[5-(trifluoromethyl)pyridin-2-yl]-2,5-diazabicyclo[2.2.1]hept-2-yl}carbonyl)octahydropentalen-2-yl]amino}-D-erythro-pentitol] |  | 0.682 µM | 0.342 µM | 2.78 µM |
| CO[C@@H]1COCC[C@H]1N[C@@H]1C[C@H]2CCC[C@@]2(C(=O)N2[C@@H]3CC[C@H]2CN(c2cc(C(F)(F)F)ccn2)C3)C1 [Example 41, 1,5-anhydro-2,3-dideoxy-4-O-methyl-3-{[(2R,3aR,6aR)-3a-({(1R,5S)-3-[4-(trifluoromethyl)pyridin-2-yl]-3,8-diazabicyclo[3.2.1]oct-8-yl}carbonyl)octahydropentalen-2-yl]amino}-D-threo-pentitol] | 25 µM | > 6.14 µM | > 4 µM |  |
| COc1ccc(N2C[C@@H]3C[C@H]2CN3C(=O)[C@@]23CCC[C@@H]2C[C@@H](N[C@H]2CCOC[C@H]2OC)C3)cc1C(F)(F)F [Example 31, 1,5-anhydro-2,3-dideoxy-3-{[(2R,3aR,6aR)-3a-({(1S,4S)-5-[4-methoxy-3-(trifluoromethyl)phenyl]-2,5-diazabicyclo[2.2.1]hept-2-yl}carbonyl)octahydropentalen-2-yl]amino}-4-O-methyl-D-erythro-pentitol] | 1.02 µM | 0.25 µM | 0.022 µM |  |
| CO[C@@H]1COCC[C@@H]1N[C@@H]1C[C@H]2CCC[C@@]2(C(=O)N2C[C@@H]3C[C@H]2CN3c2nccc(C(F)(F)F)c2F)C1 [Example 21, 1,5-anhydro-2,3-dideoxy-3-{[(2R,3aR,6aR)-3a-({(1S,4S)-5-[3-fluoro-4-(trifluoromethyl)pyridin-2-yl]-2,5-diazabicyclo[2.2.1]hept-2-yl}carbonyl)octahydropentalen-2-yl]amino}-4-O-methyl-D-erythro-pentitol] | 0.821 µM | 0.201 µM | 0.091 µM |  |
| CO[C@@H]1COCC[C@@H]1N[C@@H]1C[C@H]2CCC[C@@]2(C(=O)N2C[C@@H]3C[C@H]2CN3c2cccc(Cl)c2C#N)C1 [Example 44, 1,5-anhydro-3-{[(2R,3aR,6aR)-3a-{[(1S,4S)-5-(3-chloro-2-cyanophenyl)-2,5-diazabicyclo[2.2.1]hept-2-yl]carbonyl}octahydropentalen-2-yl]amino}-2,3-dideoxy-4-O-methyl-D-erythro-pentitol] | 1.6 µM | 0.394 µM | 0.486 µM |  |
| O=C(N1C[C@@H]2C[C@H]1CN2c1cc(C(F)(F)F)ccn1)[C@@]12CCC[C@@H]1C[C@@H](N1CCOCC1)C2 [Example 59, [(2R,3aR,6aR)-2-(morpholin-4-yl)hexahydropentalen-3a(1H)-yl]{(1S,4S)-5-[4-(trifluoromethyl)pyridin-2-yl]-2,5-diazabicyclo[2.2.1]hept-2-yl}methanone] |  | 0.204 µM | 0.533 µM | 0.83 µM |
| CO[C@@H]1COCC[C@@H]1N(C)[C@@H]1C[C@H]2CCC[C@@]2(C(=O)N2C[C@@H]3C[C@H]2CN3c2cc(C(F)(F)F)cc(C(F)(F)F)c2)C1 [Example 55, 1,5-anhydro-3-{[(2R,3aR,6aR)-3a-({(1S,4S)-5-[3,5-bis(trifluoromethyl)phenyl]-2,5-diazabicyclo[2.2.1]hept-2-yl}carbonyl)octahydropentalen-2-yl](methyl)amino}-2,3-dideoxy-4-O-methyl-D-erythro-pentitol] | 1.41 µM | 0.346 µM | 0.175 µM |  |

— patent US8906911B2, “Chemokine receptor antagonists” (AbbVie Inc., priority 2012, dated 2014)
